In one data set the test system is TNBC cells. Put plainly: Cellular copper levels by ICP-MS. In kind it is cell-based. Here is the method:
TNBC cells (1×10^6) were plated in a 10-cm culture dish in growth medium. About 24 h after seeding cells, they were untreated or treated with DPM-1001 (2 uM) or DPM-1003 (2 uM) for 2 h. Following which, cells were washed three times with PBS. Then, 215 μl of concentrated nitric acid (BDH Aristar Ultra) was added to each sample and incubated overnight. Samples were boiled at 95° C. for 1 h. and approximately 150 μl of each sample was further diluted in 2 ml 2% nitric acid (made freshly from concentrated nitric acid and Milli-Q water). Samples were analyzed on a Thermo Fisher iCAP Qc ICP mass spectrometer in kinetic energy discrimination (KED) mode against a calibration curve of known copper and phosphorus concentrations, with Ga (20 μg/l, Inorganic Ventures) as an internal standard. Each experiment was carried out twice and each condition was repeated in at least triplicate.

Data set [1] deals with PTP1B1-367, PTP1B1-346 and PTP1B1-321. Put plainly: Phosphatase assay with C-terminal truncation mutants. In kind it is biochemical. An excerpt: All common reagents were obtained from Thermo Fisher Scientific (Waltham, MA) or Sigma-Aldrich (St. Louis, MO). Difluoro-4-methylumbelliferyl phosphate (DiFMUP) was obtained from Invitrogen (cat #D22065). Solid black 384-well plates (cat #3573) for phosphatase assays were from Corning Incorporated (Corning, NY).

The nature of data set [2]: ESI-MS analysis of complex formation with zinc salts. Particulars: ZnSO4 or Zn(NO3)2, ESI-MS. In kind it is binding. As to the method:
Eight equivalents of M(NO3)2·xH2O or MSO4·xH2O (M=Cu, Zn) were reacted with 1 eq. of DPM-1001 (1 mM in H2O). The reaction solutions were stirred at RT, 40° C. and 80° C. for 2 h. Mass spectra were recorded on a Bruker Esquire 6000 HCT quadrupole ion trap instrument (Bruker Daltonik GmbH, Leipzig, Germany), equipped with an electrospray ionization (ESI) source. Generation of the molecular formula of the DPM-1001/Cu(II) species and the comparison between the theoretical (simulated) and the measured isotopic patterns was performed using the DataAnalysis 4.0 software (Bruker).

The subject of a further data set is TX mice. Put plainly: Liver histology. In kind it is in vivo, mouse. An excerpt: Liver tissues from wild-type and TX mice from untreated and DPM-1001-treated mice were sectioned and stained with H&E or rhodanine. Whole-slide, digitized images of H&E-stained tissue were captured using the Aperio ScanScope XT automated scanning system (Vista, CA). Image J software was used to quantitate rhodanine staining.

Data set [3] is described as follows: ESI-MS analysis of complex formation with a series of other metal ions. Particulars: panel of metals. In kind it is binding. Here is the method:
Eight equivalents of M(NO3)2·xH2O or MSO4·xH2O were reacted with 1 eq. of DPM-1001, DPM-1003 or analog 2 (1 mM in H2O). The reaction solutions were stirred at RT, 40° C. and 80° C. for 2 h. Each sample was diluted 5-fold in 50% methanol, 0.1% formic acid and loaded into a 500 μL syringe. A Thermo Vantage triple quadrupole mass spectrometer (Thermo Scientific), equipped with an HESI spray source was coupled to an Accela HPLC system (Thermo Scientific). Mobile phase A consisted of 0.1% formic acid and mobile phase B consisted of 0.1% formic acid in methanol. Isocratic flow was set to 50% B at 200 μL/min. 200 μl samples were injected into the LC flow line via syringe pump at 10 μL/min and electrosprayed into the Vantage triple quadrupole mass spectrometer. A spray voltage of 4.3 kV was used along with a capillary temperature of 350° C. Each full MS scan was 0.5 s and data were collected with a scan range of 200 m/z to 900 m/z over 1 min.

For data set [4], the system named is triple-negative breast cancer (TNBC) cell lines. Put plainly: MTT cell survival, triple-negative breast cancer cell lines. In kind it is cell-based. As to the method: (§1) The MTT assay was used to evaluate cell survival in the absence and presence of different compounds. The thiazolyl blue tetrazolium bromide (MTT) was dissolved in phosphate buffered saline (PBS) at a concentration of 5 mg/ml, filtered, and stored at 4° C. About 10,000 cells were seeded into a 96-well plate and cultured in growth medium containing serum. After 24 hours, cells were treated with the indicated concentrations of DPM-1001 or DPM-1003 (0-100 uM) for 2 hrs. Following which 20 μl MTT was added into each well. An ELISA plate reader (Biotek, Winooski, Vermont, USA) was used to measure the optical density at 490 nm.

Data set [5] relates to MDA-MB-231 cells. Put plainly: Cell survival. In kind it is cell-based. As to the method: as §1
MDA-MB-231 cells (1×10^5) were seeded in 6 cm plates in growth medium. The cells were untreated or treated with DPM-1001 (0.5, 1, 2 and 5 μM), DPM-1003 (0.5, 1, 2 and 5 μM) or TTM (25, 50, 100 μM) for 1 h. Following which, media was gently aspirated and cells were washed with PBS. To each plate 0.5 ml of crystal violet (0.5%) was added and incubated in dark for 10 minutes at room temperature. The staining solution was removed and plates were washed with PBS (three times). The cells stained with the dye were imaged.

For data set [6], the system named is MDA-MB-231 cells. Put plainly: MDA-MB-231 orthotopic xenograft. In kind it is in vivo, SCID-beige mice. The following applies: mice with TNBC xenograft, 5 mg/kg intraperitoneally every day. As to the method: MDA-MB-231 cells (2×10^6) were injected orthotopically into mammary fat pads of SCID-beige mice (Tectonic lab) in 15 μl of a 1:1 mixture with DMEM and growth factor-reduced Matrigel (BD Biosciences). The animals were randomly assigned to three groups to receive saline (control), DPM-1001 (5 mg/kg) or DPM-1003 (5 mg/kg) intraperitoneally everyday once the tumors reached about 200 mm^3. Tumor growth was monitored every third day and volume in mm^3 was measured three times weekly by palpation using the formula: volume=width^2×length/2. Once the tumor volume reached above 500 mm^3 in saline treated mice, the study was terminated. Tumors from all mice were removed for biochemical analysis.

Each structure is given as a SMILES string. “Also recorded” adds a separate entry of the source.

Experimental findings from patent publication US12178825B2, “Method and compositions for forming a copper-containing complex and uses thereof” (COLD SPRING HARBOR LABORATORY, priority 2017, dated 2024) are described below.

Take `COC(=O)CCC(C)C1CCC2C3C(O)CC4CC(NCCCCNCc5ccccn5)CCC4(C)C3CCC12C` (stereo not drawn) [DPM-1001]: the cellular copper levels result in the data set with TNBC cells is on record as “depletion of copper; also recorded: reduces cellular copper levels”. The “inhibitory potency for truncation mutants relative to PTP1B1-405 and PTP1B1-394” value in data set [1] is listed as “lower”. Moreover, the “complexation with Zn(II)” value in data set [2] is given as “no complexation”. In addition, the liver morphology entry in the data set on TX mice (TX mice) was “prevents the enlarged hepatocytes with irregular shape and arrangement large cytoplasmic lipid droplets in liver; also recorded: appeared similar to those from wild-type mice with normal hepatocyte size, shape and arrangement”; in the data set with TX mice (wild-type mice), “no obvious abnormalities were detected”. Moreover, the “complex formation with other metals” value in data set [3] is “none formed a complex with the compound”. In addition, the “survival of triple-negative breast cancer cells” value in data set [4] was “inhibited survival; also recorded: potently inhibits survival”. In the data set on MDA-MB-231 cells [5], the “survival of MDA-MB-231 cells” value is on record as “inhibiting survival; also recorded: inhibition of survival”. In addition, the “tumor volume / tumor size” value in the data set with MDA-MB-231 cells [6] is “reduced tumor volume; also recorded: inhibition of tumor size; also recorded: shrank the size of such tumors”.
